The values below come from article PMC9967700, “Metabolism-Guided Optimization of Tryptophanol-Derived Isoindolinone p53 Activators” (Pharmaceuticals, 2023).

A word on the half-life: it is the time needed for the level to fall by half in the phase considered.

Details of data set [1]: method as in PMID 26735173. The following applies: cited from earlier work.
For data set [2], the system named is HCT116 p53+/+ cells. The arrangement: method as in PMID 26735173. Conditions: 48 h treatment; cited from earlier work.
The nature of data set [3]: Human plasma incubations (stability). Conditions: 37 °C, 40 μM. Type of data set: in vitro ADME. The procedure: Human plasma incubations were performed in duplicate, at 37 °C, by standard methodology. Specifically, incubations contained 40 μM of the test compound for a final volume of 1 mL. The mixtures were incubated for a total time of 24 h, and aliquots following 0, 30, 60, 120, 180 min and 24 h and quenched with a cold solution of reserpine 0.1 mM in acetonitrile. Following centrifugation (10,000 rpm, 10 min, RT), the clear supernatants were collected and analyzed by LC-ESI(+)-MS/MS. Additional control assays were conducted using PBS pH 7.4 instead of plasma solution and using procaine as a positive control.

Data set [4] in a line: Human liver microsomes incubations: half-life and intrinsic clearance. Type of data set: in vitro ADME. Conditions: for Intrinsic Clearance / clearance classification: HLM; for Intrinsic Clearance: calculated from half-life (Equation 2); for clearance classification: classification after ref 32; for half-life at 10 μM: human, liver microsomes, pH 7.4, HLM 1 mg protein/mL, NADPH, 37 °C. The procedure: (§1) For the generation of Phase I metabolites: tested compounds, at a 10 μM concentration (1 μL of 5 mM DMSO stock solution), were incubated with HLM (1 mg protein/mL), Vivid® regenerating system (5 μL) and NADPH (1mM) in ABIC 50 mM buffer pH 7.4, for a total incubation volume of 500 μL. Incubations were run in duplicate, at 37 °C. Aliquots were collected at 0, 5, 10, 20, 30, 40, 50, 60, 75, 90, 120, 180 min and reactions were stopped by adding and ice-cold solution of reserpine (2.5 μM) in acetonitrile. Additional aliquots were taken at 0 and 120 min and subsequently treated with L-lysine (100 µM) and sodium cyanoborohydride (10 µM) or glutathione (100 µM). Following centrifugation (10,000 rpm, 15 min, RT), the clear supernatants were collected and analyzed LC-ESI-HRMS/MS. Control incubations were conducted in the same conditions: (1) using DMSO as negative control, in absence of the test drug; (2) using heat-denatured HLM (90 °C, 15 min); (3) using nevirapine, as a positive control, instead of the tested compound; and (4) in absence of NADPH co-factor.
The in vitro depletion half-lives of tested compounds t1/2 were calculated using Equation (1), assuming that testing compounds follow a first-order kinetic trend. The “slope” was determined from linear fitting of the natural logarithm of the concentration of drug remaining plotted against time:(1) t1/2=ln2/slope
The intrinsic clearance in HLM (CLint, HLM) was calculated using Equation (2):(2) CLint HLM =ln2/ t1/2 x mL incubation/mg microsomes x 45 mg microsomes/g liver x 26 g liver/Kg b.w.

Data set [5] relates to HCT116 p53−/− cells. The arrangement: method as in PMID 26735173. The following applies: 48 h treatment; cited from earlier work.
Data set [6] is described as follows: Glucuronidation in alamethicin induced-HLM with NADPH and UDPGA. Type of data set: in vitro ADME, human. Conditions: NADPH, UDPGA, LC-ESI(-)-HRMS/MS. The procedure:
For the generation of glucuronidation metabolites: HLM were preincubated for 15 min with alamethicin (25 µg/mL). Incubations were then run in duplicate at 37 °C, using the following conditions: test compounds at a concentration of 25 µM (1 μL of DMSO stock solution 5 mM), HLM (1 mg/mL, 10 μL), NADPH (5 mM), MgCl2 (2 mM), UDPGA (5 mM) for a final volume of 200 μL, in 50 mM ABIC buffer pH 7.4. Control incubations were conducted in the same conditions using: (1) DMSO as negative control, in absence of the test compound; (2) heat-denatured HLM (90 °C, 15 min); and (3) in absence of UDPGA co-factor. Aliquots (50 μL) were collected at 0 and 2 h and then quenched with 50 μL of a cold 2.5 μM reserpine solution in acetonitrile. All the samples were vortexed and centrifuged for 15 min at 10,000 rpm. The supernatants were collected and stored at −20 °C until further analysis by LC-ESI-HRMS/MS.

A short description of data set [7]: Bioactivation: S9 rat liver fraction and HLM incubations in the presence of glutathione. Type of data set: in vitro ADME, human. Here is the method:
as §1, with “Control incubations were conducted in the same conditions: (1) using DMSO as negative control, in absence of the test drug; (2) using heat-denatured HLM (90 °C, 15 min); (3) using nevirapine, as a positive control, instead of the tested compound; and (4) in absence of NADPH co-factor.” left out
Tested compounds at a 10 μM concentration (1 μL of 5 mM DMSO stock solution) were incubated with rat liver S9 fraction (2 mg protein/mL), Vivid® regenerating system (2 μL) and NADPH (1mM) in ABIC 50 mM buffer pH 7.4, for a total incubation volume of 500 μL. […] Following centrifugation (10,000 rpm, 15 min, RT) the clear supernatants were collected and analyzed LC-ESI-HRMS/MS. […]

Data set [8] can be described thus: In vitro reactions with bionucleophiles. Here is the method:
To a solution of compound 13d in acetonitrile (1.00 eq., 10.1 mg in 400 µL, 5.04 × 10^−2 M) reduced glutathione (4.00 eq. 25.2 mg, 82.00 µmol) dissolved in 400 µL of ABIC buffer 50 mM pH 7.4 was added. The reaction mixture was incubated for 24 h at 37 °C and monitored by LC-ESI-HRMS/MS.
To a solution of compound 13k in acetonitrile (1.00 eq., 4.3 mg in 200 µL, 3.92 × 10^−2 M) reduced glutathione (4.00 eq. 9.64 mg, 31.36 µmol) dissolved in 200 µL of ABIC buffer 50 mM pH 7.4 was added. The reaction mixture was incubated for 24 h at 37 °C and monitored by LC-ESI-HRMS/MS.
SLMP53-1_M5 (1.00 eq., 2.1 mg, dissolved in 150 µL of ACN) was added to a L-lysine (2 eq.) solution in 50 mM ABIC buffer pH 7.4. Following incubation for 24 h at 37 °C a solution of cyanoborohydride (2 eq) was added. The mixture was analyzed by LC-ESI(+)-HRMS/MS.

Data set [9] deals with HCT116 p53+/+ cells. Nature of the data set: Antiproliferative activity, sulforhodamine B (SRB) assay. Conditions: for S.I. (selectivity index): HCT116 p53−/− versus HCT116 p53+/+; for GI50: Homo sapiens, HCT-116, 48 h treatment, read-out: HCT116 p53+/+ GI50. Type of data set: cell-based, human. The procedure:
(§2) Tumor cells were cultured in RPMI-1640 with UltraGlutamine (Lonza, VWR), supplemented with 10% fetal bovine serum (FBS; Gibco, Alfagene) and maintained in a humidified incubator at 37 °C with 5% CO2. Cell lines were seeded in 96-well plates at the cells/well density of 5.0 × 10^3.
For orientation: Sulforhodamine B stains cellular protein and so reports cell mass.

For data set [10], the system named is HCT116 p53−/− cells. Described as above. It counts as cell-based, human. Conditions: Homo sapiens, HCT-116, 48 h, 48 h treatment, read-out: HCT116 p53−/− GI50. Here is the method:
as §2

[11] abbreviates: mean ± SEM of 3–5 independent experiments.
[12] abbreviates: mean ± SEM of 5 independent experiments.

Where two headings read alike, the source gives them in different places.

Consider `CC12OCC(Cc3c[nH]c4ccccc34)N1C(=O)c1ccccc12` (stereo not shown) [SLMP53-1], for which, in [1], the “toxicity alerts in vivo” value is “not associated with toxicity alerts”. Besides, the GI50 in data set [2] is 15.6 ± 1.6 µM. In data set [3], the “stability towards plasmatic enzymes” value was “stable towards plasmatic enzymes for 3 h”. In addition, in [4], the “Intrinsic Clearance” value was 3.67 mL/min/kg, the clearance classification entry is given as “low clearance” and the half-life at 10 μM was determined as 2.3 h. In data set [5], the GI50 was 34 ± 3.5 µM. Further, the “Phase II (glucuronic acid conjugate) metabolites identified” value in data set [6] was “two glucuronic acid conjugates were identified”. The GSH adducts identified result in data set [7] (S9 rat liver fraction and HLM in the presence of GSH) is recorded as “Two GSH adducts were identified”.
As for `O=C1c2ccccc2[C@@]2(c3ccccc3)OC[C@H](Cc3c(Br)n(Cc4ccccc4)c4ccccc34)N12` [Compound 13k, (3S, 9bR)-3-((1-benzyl-2-bromo-1H-indol-3-yl)methyl)-9b-phenyl-2,3-dihydrooxazolo[2,3-a]isoindol-5(9bH)-one], the “products of addition of GSH with concomitant loss of bromine” value in data set [8] (with or without enzymatic conditions (S9 rat liver incubations)) is “no products compatible with the addition of GSH, and the concomitant loss of bromine, were detected”. The “S.I. (selectivity index)” value in [9] was 3.8. For the same compound, the GI50 in data set [9] (setting [11]) was 8.09 ± 2.01 µM. For the same compound, the GI50 in [10] (setting [11]) came out at 30.5 ± 2.1 µM. Besides, in [4], the “Intrinsic Clearance” value was 3.4 mL/min/kg, the clearance classification entry is recorded as “low clearance” and the half-life at 10 μM was 2.45 h. Also, in data set [7] (S9 rat liver fraction incubation in the presence of GSH), the “GSH adducts stemming from the bioactivation of Phase I metabolites” value is “no adducts stemming from the bioactivation of Phase I metabolites were identified”.
As for `C[C@]12OC[C@H](CC(=O)c3ccccc3NC=O)N1C(=O)c1ccccc12` [SLMP53-1_M5, N-(2-(2-((3S,9bR)-9b-methyl-5-oxo-2,3,5,9b-tetrahydrooxazolo[2,3-a]isoindol-3-yl)acetyl)phenyl)formamide], the “reaction products upon L-lysine incubation” value in data set [8] (followed by reductive stabilization, 24 h, 37 °C) is reported as “no reaction products were obtained”. Besides, the values for the GI50 in [9] (setting [12]) and in [10] (setting [12]) were 48.8 ± 2.3 µM and 44 ± 1.8 µM, respectively.
`Cn1cc(C[C@H]2CO[C@]3(c4ccccc4)c4ccccc4C(=O)N23)c2ccccc21` [SLMP53-2]: the “S.I. (selectivity index)” value in data set [9] is recorded as 2.1. The GI50 in data set [9] (setting [11]) is 8.4 ± 1.1 µM. In addition, the GI50 in data set [10] (setting [11]) came out at 17.7 ± 2.3 µM. Further, in [3], the “stability towards plasmatic enzymes” value is reported as “stable towards plasmatic enzymes for 3 h”. The “Intrinsic Clearance” value in [4] (listed as SLMP53-2 (7)) is 2.75 mL/min/kg. Also, in [4], the clearance classification entry was “low clearance” and the half-life at 10 μM was determined as 2.45 h. For the same compound, in data set [6], the “Phase II (glucuronic acid conjugate) metabolites identified” value was “no Phase II metabolites were identified”.
